# Measured values taken from patent US8058256B2, “Polymeric carrier for delivery of small interfering RNA” (University of Utah Research Foundation, priority 2006, dated 2011).
# Test system: VEGF expression in CT-26 colon adenocarcinoma cells
# Test: VEGF silencing in vitro, mouse VEGF ELISA of cell supernatants
# Type: cell-based
# Settings: bPEI carrier; N/P ratio of 10; CT-26 cells; 0.7 μg siRNA/well
# Experimental: To evaluate the biological significance of these systems, the inhibitory activity of siRNA against the expression of VEGF in CT-26 colon adenocarcinoma cells was investigated.
# CT-26 cells were seeded in 24-well tissue culture plates at 8×10^4 cells per well in 10% FBS containing RPMI 1640 medium. Cells achieved 80% confluency within 24 h, after which they were transfected with cationic substance/siRNA complexes prepared at N/P ratios ranging from 5 to 40. The total amount of siRNA loaded was maintained constant at 0.7 μg/well. The transfection was carried out in the absence of serum. The cells were allowed to incubate at 37° C. in the presence of complexes for 4 h in a CO2 incubator, followed by replacement of 1 ml of RPMI 1640 containing 10% FBS. Thereafter, the cells were incubated at 37° C. for an additional 24 h. […]
# The amount of mouse VEGF produced in medium was determined using a mouse VEGF ELISA kit (R&D Systems Inc., Minneapolis, Minn.) according to the recommendation of the manufacturer. […] The enzymatic reaction was stopped by adding 100 μl of stop solution to the wells, and absorbance was determined by spectrophotometry at 450 nm. The VEGF concentration in the cell supernatant samples was calculated based on the standard curve.
# The inhibitory effect was evaluated from the relative silencing of the VEGF assayed by ELISA.
substance,measurement,value
"scVEGF: scrambled VEGF siRNA, SEQ ID NO:3 and SEQ ID NO:4; in b74 tested as complex with bPEI (chain 1 GAUAGCAAUGACGAAUGCGUATT; chain 2 UACGCAUUCGUCAUUGCUAUCTT; chemistry not given here)",silencing of VEGF expression (ELISA),no effect
